Measured values as given in patent US7652000B2, “Boron-containing compounds and methods of use” (Anacor Pharmaceuticals, Inc., priority 2004, dated 2010).
In brackets after ≈: the same amount, converted by molar mass. One block for each compound: values may come before it.

Key:
[1] = test system: P. acnes ATCC 6919; test: MIC determination (NCCLS broth microdilution), P. acnes; format: cell-based, Propionibacterium acnes; settings: lowest concentration with >=80% inhibition, 24 h at 34° C.
Protocol: (§1) The compounds of this invention are evaluated for their antibacterial activity as per the guidelines and procedures prescribed by the National Committee for Clinical Laboratory Standards (NCCLS) (cf., NCCLS Document M7-A3, 1993-Antimicrobial Susceptibility Testing). 5.1.1 Protocol for Determining Minimum Inhibitory Concentration (MIC) A useful protocol for MIC determination is as follows: • 1. Approximately 2.5 mg of the compounds to be tested was weighed into cryovials. • 2. 5 mg/ml stock solutions were made by adding DMSO to the samples accordingly. • 3. 256 μg/ml working solutions were made by using the 5 mg/ml stock solutions and adding sterile distilled water accordingly. • 4. A Beckman 2000 Automated Workstation was programmed to load 96-well plates with broth and compounds as follows: • 100 μl of the appropriate broth was added to columns 1-11. • 200 μl of the appropriate broth was added to column 12. • 100 μl of compounds at the 256 μg/ml working solution were added to column 1 (one compound per row). • Two-fold serial dilutions were done from columns 1-10. • Column 11 served as the growth control. • 5. The ten-organism panel was plated from stock vials stored at −80° C. and incubated for 24 hours at 34° C. The organisms were then sub-cultured and incubated for 24 hours at 34° C. • The inoculums were first prepared in sterile distilled water with a target of 0.09-0.11 absorbance at 620 nm wavelength. • A 1/100 dilution was made into the appropriate broth. • 100 μl of broth with organism was added to columns 1-11. • Column 12 served as the blank control. • 6. The completed 96 well plates were incubated for 24 hours at 34° C. The 96-well plates were then read using a Beckman Automated Plate Reader at 650 nm wavelength. The MIC was determined through calculations involving the growth control (column 11) and blank control (column 12). 5.1.2 MIC Calculation The absorbance readings from the Biomek Automated Plate Reader are used to determine the percent inhibition for each test well. The formula used is as follows: [formula] • ABSTest: Absorbance of the test well. • ABSblank: Absorbance of the blank well in the same row as the test well (column 12). • ABSgrowth: Mean absorbance of the growth control wells (column 11). […] These procedures were used to obtain the representative microbiological data for the compounds 10 to 19 shown in Table 1 as MIC (Minimum Inhibitory Concentration) with the values expressed as micrograms per milliliter (mcg/ml).

[2] = test system: S. epidermidis ATCC 12228; test: MIC determination (NCCLS broth microdilution), S. epidermidis; format: cell-based; settings: lowest concentration with >=80% inhibition, 24 h at 34° C.
Protocol: as §1

[3] = test system: S. aureus ATCC 29213; test: MIC determination (NCCLS broth microdilution), S. aureus; format: cell-based; settings: lowest concentration with >=80% inhibition, 24 h at 34° C.
Protocol: as §1

[4] = test system: TNF-α; test: Inhibition of TNF-α secretion from human PBMC stimulated with LPS; format: cell-based; settings: 1 μg/ml LPS, 24 h; for IC50: read-out: IC50 TNF-α release
Protocol: (§2) 5.2 Inhibition of IL-β, IL-6, or TNF-α Secretion from Human Peripheral Blood […] (PBMC) Stimulated with LPS PBMC (5×10^5 cells) suspended in RPMI 1640 culture medium supplemented with 1% penicillin and 1% streptomycin are pre-incubated for 30 min. at 37° C. with the test compound, reference compound, or culture medium (control). Thereafter, 1 μg/ml LPS is added to induce the cytokine secretion and the mixture is incubated for 24 h at 37° C. For basal control measurements, LPS is omitted from the incubation medium. Following incubation, the samples are centrifuged at 250×g for 5 min. at 4° C. and the supernatants are collected. The amount of secreted IL-1β, 1L-6, or TNF-α present in the supernatant is quantified using an EIA detection kit (R&D systems). The photometric measurements are made with a microplate reader (Ultra, Tecan). The results are expressed as a percent inhibition of the control secretion induced by LPS. The standard inhibitory reference compounds for IL-1β, IL-6 or TNF-α are cycloheximide and dexamethasone, respectively, which are tested in each experiment at several concentrations to obtain an inhibition curve from which their IC50 values are calculated (Schindler, R., et al., (1990). “Correlations and interactions in the production of interleukin-6 (IL-6), IL-1, and tumor necrosis factor (TNF) in human blood mononuclear cells: IL-6 suppresses IL-1 and TNF”, Blood, 75:40. These procedures were used to determine the inhibition (and selectivity) of cytokine release by representative compounds […] shown in Table 2. Thus, the invention provides antibiotics that are generically called borinic acid complexes, most preferably derived from disubstituted borinic acids.

[5] = test system: IL-1β; test: Inhibition of IL-1β secretion from human PBMC stimulated with LPS; format: cell-based; settings: 1 μg/ml LPS, 24 h; for IC50: read-out: IC50 IL-1β release
Protocol: as §2

[6] = test system: IL-6; test: Inhibition of IL-6 secretion from human PBMC stimulated with LPS; format: cell-based; settings: 1 μg/ml LPS, 24 h; for IC50: read-out: IC50 IL-6 release
Protocol: as §2

[7] = test system: IL-8; test: Inhibition of IL-8 pro-inflammatory cytokine release; format: cell-based
Source text: The selective inhibition of the release of pro-inflammatory cytokines is shown in Table 2 with representative compounds 10, 11, and 30-35.

Structure (SMILES): Cc1cc(Cl)ccc1B(OC(=O)c1ncccc1O)c1ccc(Cl)cc1C [Compound 11, Bis(2-methyl-4-chlorophenyl)borinic acid 3-Hydroxypicolinate ester]
MIC P. acnes ATCC 6919 [1]: 0.3 µg/mL (≈ 0.75 µM)
MIC S. epidermidis ATCC 12228 [2]: 0.25 µg/mL (≈ 0.625 µM)
MIC S. aureus ATCC 29213 [3]: 1 µg/mL (≈ 2.5 µM)
IC50 [4]: 14.9 µM
Inhibition (%) at 25 μM TNF-α release [4]: (101%)
IC50 [5]: 15 µM
Inhibition (%) at 25 μM IL-1β release [5]: (103%)
IC50 [6]: 2.8 µM
Inhibition (%) at 25 μM IL-6 release [6]: (102%)
Inhibition (%) at 25 μM IL-8 release [7]: (122%)

Structure (SMILES): Cc1ccc(B(OC(=O)c2ncccc2C(=O)O)c2ccc(C)cc2Cl)c(Cl)c1 [Compound 14, Bis(2-Chloro-4-methylphenyl)borinic acid 3-carboxypicolinate ester]
MIC P. acnes ATCC 6919 [1]: 3 µg/mL (≈ 7.01 µM)
MIC S. epidermidis ATCC 12228 [2]: 4 µg/mL (≈ 9.34 µM)
MIC S. aureus ATCC 29213 [3]: 0.125 µg/mL (≈ 0.292 µM)

Structure (SMILES): COc1ccc(Cl)cc1B(OC(=O)c1ncccc1O)c1cccc(Cl)c1 [Compound 15, (2-Methoxy-5-chlorophenyl)(3-chlorophenyl)borinic acid 3-Hydroxypicolinate ester]
MIC P. acnes ATCC 6919 [1]: 3 µg/mL (≈ 7.46 µM)
MIC S. epidermidis ATCC 12228 [2]: 4 µg/mL (≈ 9.95 µM)
MIC S. aureus ATCC 29213 [3]: 4 µg/mL (≈ 9.95 µM)

Structure (SMILES): CCOC(=O)c1cccnc1C(=O)OB(c1ccc(C)c(Cl)c1)c1ccc(C)c(Cl)c1 [Compound 30, Bis(3-chloro-4-methylphenyl)borinic Acid 3-(Ethyloxycarbonyl)picolinate Ester]
Inhibition (%) at 25 μM TNF-α release [4]: 101%
Inhibition (%) at 25 μM IL-1β release [5]: 76%

Structure (SMILES): Cc1ccc(B(OC(=O)c2ccc(C(=O)O)cn2)c2ccc(C)c(Cl)c2)cc1Cl [Compound 31, Bis(3-chloro-4-methylphenyl)borinic acid 5-Carboxypicolinate ester]
Inhibition (%) at 25 μM TNF-α release [4]: 101%
Inhibition (%) at 25 μM IL-1β release [5]: 80%

Structure (SMILES): Cc1ccc(B(OC(=O)c2ncccc2OCCN2CCOCC2)c2ccc(C)c(Cl)c2)cc1Cl [Compound 32, Bis(3-chloro-4-methylphenyl)borinic acid 3-[(2-Morpholinoethyl)oxy]picolinate ester]
Inhibition (%) at 25 μM TNF-α release [4]: 101%
Inhibition (%) at 25 μM IL-1β release [5]: 34%

Structure (SMILES): Cc1ccc(B(OC(=O)c2ncccc2O)c2ccc(O)cc2)cc1Cl [Compound 33, (3-chloro-4-methylphenyl)(4-hydroxyphenyl)borinic acid 3-hydroxypicolinate ester]
Inhibition (%) at 25 μM TNF-α release [4]: 48%
Inhibition (%) at 25 μM IL-1β release [5]: 60%

Structure (SMILES): O=C(OB(c1ccc(Cl)cc1F)c1c(Cl)ccc(Br)c1F)c1ncccc1O [Compound 34, (3-Bromo-6-chloro-2-fluorophenyl)(4-chloro-2-fluorophenyl)borinic acid 3-hydroxypicolinate ester]
Inhibition (%) at 25 μM TNF-α release [4]: 101%
Inhibition (%) at 25 μM IL-1β release [5]: 100%
Inhibition (%) at 25 μM IL-6 release [6]: 108%

Now from value to compound, other results behind:

MIC P. acnes ATCC 6919 [1]: 0.3 µg/mL (≈ 0.75 µM)
MIC S. epidermidis ATCC 12228 [2]: 1 µg/mL (≈ 2.5 µM)
MIC S. aureus ATCC 29213 [3]: 2 µg/mL (≈ 5 µM)
IC50 [4]: 8.6 µM
IC50 [5]: 10.8 µM
IC50 [6]: 3.6 µM
Structure (SMILES): Cc1ccc(B(OC(=O)c2ncccc2O)c2ccc(C)c(Cl)c2)cc1Cl [Compound 10, Bis(3-chloro-4-methylphenyl)borinic acid 3-hydroxypicolinate ester]
Inhibition (%) at 25 μM TNF-α release [4]: (100%)
Inhibition (%) at 25 μM IL-1β release [5]: (99%)
Inhibition (%) at 25 μM IL-6 release [6]: (80%)
Inhibition (%) at 25 μM IL-8 release [7]: (122%)

MIC P. acnes ATCC 6919 [1]: 3 µg/mL (≈ 7.9 µM)
MIC S. epidermidis ATCC 12228 [2]: 1 µg/mL (≈ 2.63 µM)
MIC S. aureus ATCC 29213 [3]: 0.5 µg/mL (≈ 1.32 µM)
Structure (SMILES): Cc1ccc(B(CCc2ccccc2)OC(=O)c2ncccc2O)cc1Cl [Compound 12, (3-chloro-4-methylphenyl)(phenethyl)borinic acid 3-Hydroxypicolinate ester]

MIC P. acnes ATCC 6919 [1]: 3 µg/mL (≈ 6.16 µM)
MIC S. epidermidis ATCC 12228 [2]: 1 µg/mL (≈ 2.05 µM)
MIC S. aureus ATCC 29213 [3]: 2 µg/mL (≈ 4.11 µM)
Structure (SMILES): O=C(OB(c1ccc(Cl)cc1F)c1c(Cl)ccc(Br)c1F)c1ncccc1O [Compound 13, (3-Bromo-6-chloro-2-fluorophenyl)(2-fluoro-4-chlorophenyl)borinic acid 3-Hydroxypicolinate ester]

MIC P. acnes ATCC 6919 [1]: 10 µg/mL (≈ 23.3 µM)
MIC S. epidermidis ATCC 12228 [2]: 8 µg/mL (≈ 18.6 µM)
MIC S. aureus ATCC 29213 [3]: 0.5 µg/mL (≈ 1.17 µM)
Structure (SMILES): CC(=O)Nc1ccc(O)c(C(=O)OB(c2cccc(Cl)c2)c2cccc(Cl)c2)n1 [Compound 16, Bis(3-chlorophenyl)borinic acid 6-Acetylamino-3-hydroxypicolinate ester]

MIC ([1]; Cutibacterium acnes, ATCC6919): 1 to 2 µg/mL (≈ 1.36 to 2.73 µM)
MIC ([2]; Staphylococcus epidermidis, ATCC12228): 0.5 µg/mL (≈ 0.681 µM)
MIC ([3]; Staphylococcus aureus, ATCC29213): 0.5 µg/mL (≈ 0.681 µM)
Structure (SMILES): CC[C@H]1OC(=O)[C@H](C)[C@@H](O[C@H]2C[C@@](C)(OC)[C@@H](O)[C@H](C)O2)[C@H](C)[C@@H](O[C@@H]2O[C@H](C)C[C@H](N(C)C)[C@H]2O)[C@](C)(O)C[C@@H](C)C(=O)[C@H](C)[C@@H](O)[C@]1(C)O [erythromycin, reference compound]
